In ChEMBL document CHEMBL5055670, “Sublyratins A-O, Labdane-Type Diterpenoids from Croton sublyratus” (J Nat Prod, 2021):
Structures can show the parent of a compound that is named as a salt.

Experiments:
HL-60 = test: Cytotoxicity against human HL-60 cells assessed as cell growth inhibition incubated for 72 hrs by CCK8 assay; assay type: functional, cell-based; settings: HL-60, 72 h
A549 = test: Cytotoxicity against human A549 cells assessed as cell growth inhibition by SRB assay; assay type: functional, cell-based

C=C[C@@](C)(O)[C@H]1C[C@H]2C(=CC[C@H]3C(C)(C)CCC[C@]23C)C(=O)O1
IC50 (HL-60): 2800 nM | IC50 (A549): > 10 µM

C=C[C@](C)(O)[C@H]1C[C@H]2C(=CC[C@H]3C(C)(C)CCC[C@]23C)C(=O)O1
IC50 (HL-60): 2600 nM | IC50 (A549): > 10 µM

C=C[C@](C)(O)[C@@H]1C[C@H]2C(=CC[C@H]3C(C)(C)CCC[C@]23C)C(=O)O1
IC50 (HL-60): 2400 nM | IC50 (A549): > 10 µM

C=C[C@@](C)(O)[C@@H]1C[C@H]2C(=CC[C@H]3C(C)(C)CCC[C@]23C)C(=O)O1
IC50 (HL-60): 1500 nM | IC50 (A549): > 10 µM

COc1cccc2c1C(=O)c1c(O)c3c(c(O)c1C2=O)C[C@@](O)(C(=O)CO)C[C@@H]3O[C@H]1C[C@H](N)[C@H](O)[C@H](C)O1 [DOXORUBICIN HYDROCHLORIDE]
IC50 (A549): 0.85 µM
